Source: US7989466B2, “Methods to inhibit or augment an inflammatory response” (Cambridge Enterprise Limited, priority 1999, dated 2011)
pEC50: −log10 of the molar value. Like-named read-outs stand apart in the source and are kept apart here. Positions of bridges follow the written chain, without caps; N, C: chain ends. Non-standard residues stand in square brackets, D forms with d. Residues, ends and D or L forms follow the SMILES beside them. No end group written: not given here.

Legend:
[1] = system: lung CD3, CD4, B220 cells; test: Lung cell number and type in normal mice; type: in vivo, mouse; conditions: high dose, all routes of administration, versus PBS controls
Experimental: To determine whether increasing doses of CRD-Leu4Ile11Cys13 peptide 3(3-12)[MCP-1] alters the cell number and type of cell within the lungs of normal mice, mice were injected intravenously, intravenously and intratracheally, or intratracheally alone with CRD-Leu4Ile11Cys13 peptide 3(3-12)[MCP-1]. Mice were sacrificed at 20-24 hours post injection. Lungs were collected for isolation of cells, which were subsequently counted and characterized by surface staining for CD3, CD4, CD8, B220, and Mac-1.

[2] = system: splenocyte recall response to Ova; test: Splenocyte recall cultures from ovalbumin-challenged treated mice; type: in vivo, mouse; design: IL-4, Avg. of Group: unit not given here
Experimental: In another study, BALB/c mice were sensitized with 0.1 mg of ovalbumin (OVA) or PBS (diluent control) intraperitoneally. Eight days following initial sensitization mice were challenged intratracheally with 1% ovalbumin or PBS (diluent control). On days fifteen, eighteen, twenty one, and thirty four, mice were challenged intratracheally with 2% ovalbumin of PBS. […] Thirty minutes following treatment, mice were challenged intratracheally with 2% OVA and sacrificed 3 hours after OVA challenge. […] On day 34 mice were re-challenged intratracheally with either 2% OVA or PBS. Mice were sacrificed 3 hours after challenge. Following sacrifice on day 21 or 34, lungs were collected for histopathology and for isolation of cells for total cell counts and identification by FACS analysis. Serum was collected for IgE and IL-4 levels. Spleens were collected for cytokine and antibody recall responses.

THP-1 cells = test: Agonist activity: agent in the lower compartment of the THP-1 migration chamber; conditions: agent in place of chemokine
in vivo = conditions: female, Sprague-Dawley, rat, iv, 8.8 mg; for dose excreted: rats, 8.8 mg i.v.
5-HT1a receptors = molecular target: T1, 5-HT1a receptors (Homo sapiens, UniProt P08908); test: 5HT1a serotonin receptor membrane binding (3H-8-OH-DPAT)
T1 construct: purchased RBI/Sigma S-160
Experimental: For 5HT1a serotonin receptors, membranes (S-160, RBI/Sigma) are diluted into binding buffer (50 mM Tris pH 7.4 10 mM MgCl2 and 0.5 mM EDTA, with ascorbate at 1 mg/ml added immediately before use), e.g., 10 μl of membranes in 500 μl assay volume (i.e., 1:50 dilution). Cold competitor or test competitor is then added, e.g., 5 μl of 100× stock solution such as 5 μl of 1 mM oxymetazoline. […] The tubes are vortexed then spun briefly. The mixtures are incubated for 1 hour at 4° C. The mixtures are filtered through GF/C filters pre-soaked in polyethyleneimine (0.3% in MilliQ water). The tubes are washed with 2-3 ml of wash buffer and filtered. The filter is washed with 3×5 ml of wash buffer, and air dried. 4.5 ml of scintillant is added to the dried filter in a scintillation vial and the filter counted on a tritium channel.

HIV (IIIb), T-tropic = conditions: 100 μM peptide; for effect on HIV infection / replication in Jurkat cells, in words: reverse transcriptase assay; for inhibition of reverse transcriptase activity: Jurkat cells, HIV IIIb
[3] = system: MIP1α induced human monocyte migration; test: Human monocyte migration, MIP1α; type: cell-based; conditions: n.s. = no statistically significant inhibition
Experimental: (§1) Agents may also be screened in a chemotactic assay which employs human neutrophils, eosinophils, mast cells, basophils, platelets, lymphocytes or monocytes. For monocytes, 9 mls of fresh blood are transferred to a tube containing 1 ml of 3.8% sodium citrate, and left at room temperature for 15 minutes. Five mls of this anti-coagulated blood are carefully layered over 3.5 ml Polymorphprep® (Nycomed Pharma, Oslo), and centrifuged at 500 g for 35 minutes per the manufacturer's instructions. The top band at the sample/medium interface contains monocytes. The monocytes are carefully removed with a glass pipette, and reconstituted to the original volume (5 ml). The cells are washed with PBS plus 10% fetal calf serum, and centrifuged at 400 g for 10 minutes. The washing step is repeated three times before the cells are counted. Cells are resuspended at 1×10^7 cells/ml in RPMI-1640+10% fetal calf serum (FCS). The monocytes are cultured for two days at 37° C. in a humidified atmosphere of 5% CO2.
(§2) On day 2, the cells are counted, spun down, and reconstituted to 1×10^7 cells/ml in Gey's balanced salt solution+1 mg/ml bovine serum albumin (BSA). […]

[4] = system: IL8 induced human monocyte migration; test: Human monocyte migration, IL8; type: cell-based; conditions: n.s. = no statistically significant inhibition
Experimental: as §1, §2

[5] = system: TGFβ1 induced human monocyte migration; test: Human monocyte migration, TGFβ1; type: cell-based; conditions: n.s. = no statistically significant inhibition
Experimental: as §1, §2

T1 sequence (P08908 whole entry): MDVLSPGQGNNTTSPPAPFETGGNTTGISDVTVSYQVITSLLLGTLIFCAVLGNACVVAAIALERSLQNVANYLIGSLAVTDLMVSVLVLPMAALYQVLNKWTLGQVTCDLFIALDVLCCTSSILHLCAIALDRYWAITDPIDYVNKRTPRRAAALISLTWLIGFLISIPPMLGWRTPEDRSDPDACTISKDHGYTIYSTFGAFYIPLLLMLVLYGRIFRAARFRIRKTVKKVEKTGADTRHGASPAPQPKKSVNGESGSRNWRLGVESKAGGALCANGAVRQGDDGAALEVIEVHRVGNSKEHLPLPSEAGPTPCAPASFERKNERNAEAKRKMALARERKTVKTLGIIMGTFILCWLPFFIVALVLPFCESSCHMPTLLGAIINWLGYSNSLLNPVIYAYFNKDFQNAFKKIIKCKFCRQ

With CC[C@@H](C)[C@H]1NC(=O)[C@@H](CCC(N)=O)NC(=O)[C@H](N)CSSC[C@H](C(N)=O)NC(=O)[C@@H](CC(C)C)NC(=O)[C@@H](CC(=O)O)NC(=O)[C@H]2CCCN2C(=O)[C@@H](CCCCN)NC(=O)[C@@H](CCC(N)=O)NC(=O)[C@@H](CCCCN)NC(=O)[C@@H](Cc2c[nH]c3ccccc23)NC1=O (H-[dC][dQ][dI][dW][dK][dQ][dK][dP][dD][dL][dC]-NH2; disulfide 1-11; N-terminus assumed) as the compound, how does the “percentages of CD3, CD4 and B220 cells in lungs of normal mice” value [1] read?
Its value is “significantly reduced”.

And the “IL-4, Avg. of Group” value ([2]; Group 5: Ova days 8, 15, 18, 21, peptide BID 14 days, sacrifice day 34 (No recent Ova challenge), 0 μg/ml Ova)?
Its value is 8.05.

What about the “Total IgE (1 week splenocyte cultures)” value ([2]; Group 5, 5 μg/ml Ova) of the same compound?
Its value is 0.082 ng/mL.

And the “Total IgE (1 week splenocyte cultures), Avg.” value ([2]; Group 5, 5 μg/ml Ova)?
The value was 0.021.

And the agonist activity (THP-1 cells)?
The agonist activity was “No agonist activity was detected in the concentration range where inhibitory effects on chemokine-induced migration are seen (<1 μM)”.

What about the half-life (in vivo) of the same compound?
The half-life was about 10 min.

And the dose excreted (in vivo; administered dose recovered in urine over 24 hours)?
Its dose excreted is about 70%.

And the dose excreted (in vivo; dose excreted in urine over the first two hours)?
Its dose excreted is over 55%.

Which “selectivity for MCP-1 inhibition over serotonin receptor binding” value (5-HT1a receptors) does the source give for C=CCCCCCCCCC(=O)N[C@H]1CCC(=O)NC1=O [A-I (NR58.4), [3S]-3-(undec-10-enoylamino)piperidine-2,6-dione] here?
The value was “approximately 40,000 fold”.

What about the pEC50 (5-HT1a receptors; 100 μM highest concentration tested) of the same compound?
The pEC50 was 4.10.

For EICADPKQKWVQ [peptide 3(1-12)[MCP-1]], which “effect on HIV infection / replication in Jurkat cells, in words” value (“effect on HIV infection / replication” for short) (HIV (IIIb), T-tropic; listed as Peptide 3(1-12)[MCP-1]) is on record?
Its value is “effective inhibitor of Jurkat cell infection by HIV”.

And the “effect on HIV infection / replication” value (HIV (IIIb), T-tropic; listed as peptide 3)?
The value was “but not peptide 3 (100 μM) markedly inhibited virus replication”.

What about the “% inhibition at 100 μM versus MIP1α, human monocyte migration” value [3] of the same compound?
The value was 120%.

And the “% inhibition at 100 μM versus IL8, human monocyte migration” value [4]?
Its value is 106%.

What about the “% inhibition at 100 μM versus TGFβ1, human monocyte migration” value [5] of the same compound?
The value was “n.s”.

With “SYRRITSSKCPKEAV [peptide 2(1-15)[MCP-1]]” as the compound, how does the “inhibition of reverse transcriptase activity” value (HIV (IIIb), T-tropic) read?
Its value is 75±10%.

And the “inhibition of reverse transcriptase activity” value (HIV (IIIb), T-tropic; listed as Peptide 2)?
Its value is 75%.

What about the “inhibition of reverse transcriptase activity” value (HIV (IIIb), T-tropic; listed as peptide 2) of the same compound?
The value was 75%.

What about the “effect on HIV infection / replication” value (HIV (IIIb), T-tropic) of the same compound?
The value was “more effective than peptide 3(1-12)[MCP-1] (SEQ ID NO:1), and as effective as SDF1α”.

What about the “% inhibition at 100 μM versus MIP1α, human monocyte migration” value [3] of the same compound?
Its value is “n.s”.

What about the agonist activity (THP-1 cells) of the same compound?
Its agonist activity is “weak agonist properties”.

What about the “% inhibition at 100 μM versus IL8, human monocyte migration” value [4] of the same compound?
Its value is “n.s”.

What about the “% inhibition at 100 μM versus TGFβ1, human monocyte migration” value [5] of the same compound?
Its value is “n.s”.
